Values of other authors in paper PMC6784055 (Toxins, 2019).

System: rat brain sodium channel
Conditions: relative to PbTx1

SMILES: C[C@@H]1C[C@@H]2O[C@@H]3[C@@H](C)[C@H](O)[C@@H]4O[C@]5(C[C@H](O)CO5)[C@@H](C)[C@H](C)[C@H]4O[C@H]3C[C@H]2O[C@H]2C[C@H]3O[C@H]4C/C=C\C[C@H]5O[C@H]6C=C[C@H]7O[C@H]8[C@H](O)[C@H]9O[C@@H](/C=C/[C@H](O)CO)C=CC[C@@H]9O[C@@H]8C[C@@H]7O[C@@H]6C=C[C@@H]5O[C@@H]4C[C@@H](O)[C@]3(C)O[C@@H]2C1 [ciguatoxin-1B]
- binding affinity stronger than that of PbTx1: 50 fold
